Source: patent US20210138025A1, “CATIONIC PEPTIDES WITH IMMUNOMODULATORY AND/OR ANTI-BIOFILM ACTIVITIES” (priority 2018, published 2021)
In brackets after ≈: the same amount, converted by molar mass. Read-outs that look alike come from different tables or passages of the source. Non-standard residues stand in square brackets, D forms with d. No end group written: not given here. Agb = N=C(N)NCC[C@H](N)C(=O)O; Agp = N=C(N)NC[C@H](N)C(=O)O; Dab = NCC[C@H](N)C(=O)O; Dap = NC[C@H](N)C(=O)O

How the values were obtained:
S. aureus (MRSA SAP0017) = assay type: cell-based, Staphylococcus aureus; conditions: for % Biofilm Inhibition: SPOT synthesized control peptides, determined as in Table 5, Table 7
Method: Methods of assessment of anti-biofilm activity: MRSA S. aureus strain SAP0017 biofilm formation was initially analyzed using a static abiotic solid surface assay as described elsewhere (de la Fuente-Nunez et al., 2012) and shown graphically in FIG. 2. Dilutions (1/100) of overnight cultures were incubated in BM2 biofilm-adjusted medium [62 mM potassium phosphate buffer (pH 7), 7 mM (NH4)2SO4, 2 mM MgSO4, 10 μM FeSO4, 0.4% (wt/vol) glucose, 0.5% (wt/vol) Casamino Acids], or a nutrient rich medium such as Tryptic soy broth supplemented with 1% glucose, in polypropylene microtiter plates (Falcon, United States) in the absence (control) or presence of peptide. Peptide was added at time zero (prior to adding the diluted, overnight cultures) in varying concentrations, and the amount biofilm formation was recorded after 22-46 h incubation for most bacteria. To quantify biofilm growth, planktonic cells were removed and biofilm cells adhering to the side of the wells were stained with crystal violet, and absorbance at 595 nm was measured using a microtiter plate reader (Bio-Tek Instruments Inc., United States).

MCP-1 = MCP-1 chemokine induction in human PBMCs, ELISA (Tables 6, 7; FIGS. 6-9, 13); assay type: cell-based; conditions: SPOT synthesized control peptides, determined as in Table 6; Table 7
Method: Venous blood (20 ml) from healthy volunteers was collected in Vacutainer® collection tubes containing sodium heparin as an anticoagulant (Becton Dickinson, Mississauga, ON) in accordance with UBC ethical approval and guidelines. Blood was diluted 1:1 with complete RPMI 1640 medium and separated by centrifugation over a Ficoll-Paque® Plus (Amersham Biosciences, Piscataway, N.J., USA) density gradient. White blood cells were isolated from the buffy coat, washed twice in PBS and then resuspended in RPMI 1640 complete medium (containing 10% fetal bovine serum), and the number of peripheral blood mononuclear cells (PBMC) was determined by Trypan blue exclusion. PBMCs (5×10^5) were seeded into 12-well tissue culture dishes (Falcon; Becton Dickinson) at 0.75-1×10^6 cells/ml at 37° C. in 5% CO2. The above conditions were chosen to mimic conditions for circulating blood monocytes entering tissues at the site of infection via extravasation.
Following incubation of the cells under various treatment regimens, the tissue culture supernatants were centrifuged at 1000×g for 5 min, then at 10,000×g for 2 min to obtain cell-free samples. Supernatants were aliquoted and then stored at −20° C. prior to assay for various chemokines by capture ELISA (eBioscience and BioSource International Inc., CA, USA respectively)

IL-1β = assay: Suppression of LPS-induced IL-1β production in human PBMCs, ELISA (Tables 6, 7; FIGS. 6-9, 13); conditions: SPOT synthesized control peptides, determined as in Table 6; Table 7
[1] = tested on: planktonic methicillin resistant S. aureus; assay: microbe, parasite or virus in culture; assay type: cell-based, Staphylococcus aureus; conditions: for MIC: Staphylococcus aureus
PBMCs = assay: Cytotoxicity towards PBMCs, lactate dehydrogenase (LDH) release assay (Tables 6, 7); conditions: SPOT synthesized peptide ~25 μM, PBMCs from 3 human donors; Table 6

Molecule: C52 (KIVQKKLRLVVI) [Peptide C52]
- % Biofilm Inhibition (S. aureus (MRSA SAP0017)): 99%
- MCPI production in PBMC (MCP-1): 291 pg/mL
- Fold Change in IL1-β relative to untreated LPS-stimulated cells (IL-1β): 0.76

Molecule: C57 (KGKIRKIVLIRR) [Peptide C57]
- % Biofilm Inhibition (S. aureus (MRSA SAP0017)): 102%
- MCPI production in PBMC (MCP-1): 157 pg/mL
- Fold Change in IL1-β relative to untreated LPS-stimulated cells (IL-1β): 0.9

Molecule: VRLIVAVRIWRR-NH2 [Peptide 1018, VRLIVAVRIWRR, reference compound]
- MIC (μM) MHB ([1]; planktonic methicillin resistant S. aureus, broth microdilution in Mueller Hinton Broth (MHB), mean of three biological replicates): 4 µM
- MIC (μM) TSB with 1% Glucose ([1]; planktonic methicillin resistant S. aureus, broth microdilution in Tryptic Soy Broth (TSB) supplemented with 1% glucose, mean of three biological replicates): >64 µM
- percentage of biofilm inhibited (S. aureus (MRSA SAP0017); SPOT-synthesized peptide, ~2.5 μM, MRSA SAP0017): 31%
- % Toxicity (LDH Release) (PBMCs): 21.8%

Molecule: WAVRALKVKWAL-NH2 [Imax-20, WAVRALKVKWAL]
- % Toxicity (LDH Release) (PBMCs): −2.7%

Molecule: C44 (LLKLKQKGIVIA) [Peptide C44]
- % Biofilm Inhibition (S. aureus (MRSA SAP0017)): 102%
- MCPI production in PBMC (MCP-1): 365 pg/mL
- Fold Change in IL1-β relative to untreated LPS-stimulated cells (IL-1β): 0.94

Molecule: VKGAIKRGIWVK-NH2 [Imax- 5]
- % Toxicity (LDH Release) (PBMCs): 3%

Molecule: RARQIRWLRKRV-NH2 [Imin-4, RARQIRWLRKRV]
- % Toxicity (LDH Release) (PBMCs): −4.9%

Molecule: C18 (IQIQLVKRWAVI) [Peptide C18]
- % Biofilm Inhibition (S. aureus (MRSA SAP0017)): 100%
- MCPI production in PBMC (MCP-1): 1768 pg/mL
- Fold Change in IL1-β relative to untreated LPS-stimulated cells (IL-1β): 0.92

Molecule: C36 (KRIKKLLKVVLK) [Peptide C36]
- % Biofilm Inhibition (S. aureus (MRSA SAP0017)): 100%
- MCPI production in PBMC (MCP-1): 719 pg/mL
- Fold Change in IL1-β relative to untreated LPS-stimulated cells (IL-1β): 0.92

Molecule: IRILVLRKAIIV-NH2 [MILBFmax-9, IRILVLRKAIIV]
- % Toxicity (LDH Release) (PBMCs): 23.9%

Molecule: C22 (LLIAGKWWKLAI) [Peptide C22]
- % Biofilm Inhibition (S. aureus (MRSA SAP0017)): 103%
- MCPI production in PBMC (MCP-1): 153 pg/mL
- Fold Change in IL1-β relative to untreated LPS-stimulated cells (IL-1β): 0.83

Molecule: C12 (VIRAKAVWGWVK) [Peptide C12]
- % Biofilm Inhibition (S. aureus (MRSA SAP0017)): 104%
- MCPI production in PBMC (MCP-1): 498 pg/mL
- Fold Change in IL1-β relative to untreated LPS-stimulated cells (IL-1β): 1.01

Molecule: VVGLRVRWVRLW-NH2 [Imin-3, VVGLRVRWVRLW]
- % Toxicity (LDH Release) (PBMCs): −4.3%

Molecule: C45 (QWLVKWVIIKVV) [Peptide C45]
- % Biofilm Inhibition (S. aureus (MRSA SAP0017)): 102%
- MCPI production in PBMC (MCP-1): 499 pg/mL
- Fold Change in IL1-β relative to untreated LPS-stimulated cells (IL-1β): 1

Molecule: RQVRVKRWRARW-NH2 [Mmax- 18]
- % Toxicity (LDH Release) (PBMCs): −4.9%

Molecule: C14 (VKAKRWKWAQLA) [Peptide C14]
- % Biofilm Inhibition (S. aureus (MRSA SAP0017)): 104%
- MCPI production in PBMC (MCP-1): 209 pg/mL
- Fold Change in IL1-β relative to untreated LPS-stimulated cells (IL-1β): 1.2

Molecule: C33 (KIWLLKLRQRQK) [Peptide C33]
- % Biofilm Inhibition (S. aureus (MRSA SAP0017)): 102%
- MCPI production in PBMC (MCP-1): 1685 pg/mL
- Fold Change in IL1-β relative to untreated LPS-stimulated cells (IL-1β): 1.23

Molecule: C56 (IIKWIVVRQIRK) [Peptide C56]
- % Biofilm Inhibition (S. aureus (MRSA SAP0017)): 102%
- MCPI production in PBMC (MCP-1): 57 pg/mL
- Fold Change in IL1-β relative to untreated LPS-stimulated cells (IL-1β): 0.85

Molecule: C53 (GKLKIKVKLGIA) [Peptide C53]
- % Biofilm Inhibition (S. aureus (MRSA SAP0017)): 98%
- MCPI production in PBMC (MCP-1): 113 pg/mL
- Fold Change in IL1-β relative to untreated LPS-stimulated cells (IL-1β): 0.94

Molecule: ALAIKVWIKILQ-NH2 [Imax-7, ALAIKVWIKILQ]
- % Toxicity (LDH Release) (PBMCs): −1.1%

Molecule: QQVKWWLIRWLA-NH2 [IBFmax-11, QQVKWWLIRWLA]
- % Toxicity (LDH Release) (PBMCs): −0.1%

Molecule: GRVLKIVWRKGR-NH2 [Mmax-3, GRVLKIVWRKGR]
- % Toxicity (LDH Release) (PBMCs): 4.2%

Molecule: C26 (VWLAQKIGKWIW) [Peptide C26]
- % Biofilm Inhibition (S. aureus (MRSA SAP0017)): 100%
- MCPI production in PBMC (MCP-1): 1153 pg/mL
- Fold Change in IL1-β relative to untreated LPS-stimulated cells (IL-1β): 1.41

Molecule: WWIKIVVIRVRR-NH2 [IBFmax-13, WWIKIVVIRVRR]
- % Toxicity (LDH Release) (PBMCs): −2%

Molecule: C25 (IGQVVLVKIKIA) [Peptide C25]
- % Biofilm Inhibition (S. aureus (MRSA SAP0017)): 98%
- MCPI production in PBMC (MCP-1): 1762 pg/mL
- Fold Change in IL1-β relative to untreated LPS-stimulated cells (IL-1β): 1.21

Molecule: IQLKLIWVKRKW-NH2 [MILBFmax5, IQLKLIWVKRKW]
- % Toxicity (LDH Release) (PBMCs): −1.3%

Molecule: QIIKVVWRAVII-NH2 [MILBFmax-8, QIIKVVWRAVII]
- % Toxicity (LDH Release) (PBMCs): −2.3%

Molecule: KVQIIKQLIAKK-NH2 [BFmax-7, KVQIIKQLIAKK]
- % Toxicity (LDH Release) (PBMCs): −3.9%

Molecule: RVLIKWKKVIVV-NH2 [IBFmax-8, RVLIKWKKVIVV]
- % Toxicity (LDH Release) (PBMCs): −1.8%

Molecule: KIWGLLKLGIAL-NH2 [Imax-6, KIWGLLKLGIAL]
- % Toxicity (LDH Release) (PBMCs): 1.1%

Molecule: KVVWWKVIIKVL-NH2 [BFmax-2, KVVWWKVIIKVL]
- % Toxicity (LDH Release) (PBMCs): −3.5%

Molecule: CN[C@H](CC(C)C)C(=O)N[C@H]1C(=O)N[C@@H](CC(N)=O)C(=O)N[C@H]2C(=O)N[C@H]3C(=O)N[C@H](C(=O)N[C@H](C(=O)O)c4cc(O)cc(O)c4-c4cc3ccc4O)[C@H](O)c3ccc(c(Cl)c3)Oc3cc2cc(c3O[C@@H]2O[C@H](CO)[C@@H](O)[C@H](O)[C@H]2O[C@H]2C[C@](C)(N)[C@H](O)[C@H](C)O2)Oc2ccc(cc2Cl)[C@H]1O [Vancomycin]
- MIC ([1]; read-out: MIC (μM) MHB): 0.34 µM (≈ 0.493 µg/mL)
- MIC ([1]; read-out: MIC (μM) TSB with 1% Glucose): 0.68 µM (≈ 0.986 µg/mL)

Molecule: KKQKKIWRRILV-NH2 [Mmax- 16]
- % Toxicity (LDH Release) (PBMCs): 1.8%

Molecule: VIKVLIKRWLKL-NH2 [BFmax-9, VIKVLIKRWLKL]
- % Toxicity (LDH Release) (PBMCs): 7.4%

Molecule: VARWKIIIAKLW-NH2 [BFmax-5, VARWKIIIAKLW]
- % Toxicity (LDH Release) (PBMCs): 2%

Molecule: IVKWIAQWKLVG-NH2 [Imax- 10]
- % Toxicity (LDH Release) (PBMCs): −1%

Molecule: IKWVLRKIVQII-NH2 [IBFmax-17, IKWVLRKIVQII]
- % Toxicity (LDH Release) (PBMCs): 3.6%

Molecule: VQWIQIVVWRKR-NH2 [BFmax-6, VQWIQIVVWRKR]
- % Toxicity (LDH Release) (PBMCs): −4.4%

Molecule: LKLKAILKIIRV-NH2 [MILBFmax-1, LKLKAILKIIRV]
- % Toxicity (LDH Release) (PBMCs): 1.5%

Molecule: C63 (VRLIVA[Agp]RIWRR-NH2; N-terminus assumed; SMILES CC[C@H](C)[C@H](NC(=O)[C@H](CCCNC(=N)N)NC(=O)[C@H](CNC(=N)N)NC(=O)[C@H](C)NC(=O)[C@@H](NC(=O)[C@@H](NC(=O)[C@H](CC(C)C)NC(=O)[C@H](CCCNC(=N)N)NC(=O)[C@@H](N)C(C)C)[C@@H](C)CC)C(C)C)C(=O)N[C@@H](Cc1c[nH]c2ccccc12)C(=O)N[C@@H](CCCNC(=N)N)C(=O)N[C@@H](CCCNC(=N)N)C(N)=O) [Peptide C63]
- % Biofilm Inhibition (S. aureus (MRSA SAP0017)): 105%

Molecule: C78 (VRLIVAVRIW[Agb]R; not fully specified (C-terminus); printed as VRLIVAVRIWGbutR) [Peptide C78]
- % Biofilm Inhibition (S. aureus (MRSA SAP0017)): 101%

Molecule: IVKKVKLIWGVK-NH2 [MILBFmax-13, IVKKVKLIWGVK]
- % Toxicity (LDH Release) (PBMCs): −3.2%

Molecule: C105 (VRLIVAVRIWR[Dab]) [Peptide C105]
- % Biofilm Inhibition (S. aureus (MRSA SAP0017)): 96%

Molecule: C91 (VRLIV[Dap]VRIWRR) [Peptide C91]
- % Biofilm Inhibition (S. aureus (MRSA SAP0017)): 76%

Molecule: VKGAIKRGIWVK (VKGAIKRGIWVK-NH2) [Imax-5]
- % Residual MRSA biofilm growth compared to untreated control (S. aureus (MRSA SAP0017); SPOT synthesized peptide, ~12.5 μM, clinical MRSA strain, crystal violet assay): 99%

Molecule: GLIIKIIKKRLW-NH2 [IBFmax-15, GLIIKIIKKRLW]
- % Toxicity (LDH Release) (PBMCs): 25.1%

Molecule: KRLQWVKVKKIR-NH2 [BFmax-16, KRLQWVKVKKIR]
- % Toxicity (LDH Release) (PBMCs): 0.6%
